Source: patent US20240190890A1, “MK2 INHIBITORS AND USES THEREOF” (Bristol-Myers Squibb Company, priority 2022, published 2024)

These compounds were tested against p38a activated, mitogen-activated protein kinase-activated protein kinase 2 (MAPKAP-K2 or MK2) enzyme (Homo sapiens (Human), UniProt P49137) (assay: MK2 Omnia continuous-read kinase assay for compound potency). Details: [MK-2]=0.4 nM, [ATP]=10 μM, [ST3-Sox]=10 μM; room temperature.
Format: biochemical
Source text: Mitogen-Activated Protein Kinase-Activated Protein Kinase 2 Omnia® Assay for Compound Potency Assessment:
The protocol below describes a continuous-read kinase assay optimized to measure potency of compounds against p38a activated, mitogen-activated protein kinase-activated protein kinase 2 (MAPKAP-K2 or MK2) enzyme. Further details of this assay are described by Life Technologies, Carlsbad, CA on their website at the following URL: http://tools.lifetechnologies.com/content/sfs/manuals/omnia_kinase_assay_man.pdf. • [Reagent] used: • [MK-2]=0.4 nM, • [ATP]=10 μM and • [ST3-Sox]=10 μM (ATP^appKM=10 μM)
Briefly, 10× stock solutions of MK2 (PV3317, from Life Technologies), 1.13X ATP (AS001A), and Sox conjugated peptide substrate, S/T3-Sox, (KZN1031) were prepared in 1× kinase reaction buffer consisting of 20 mM Tris, pH 7.5, 5 mM MgCl2, 1 mM EGTA, 5 mM β-glycerophosphate, 5% glycerol (10× stock, KB001A) and 0.2 mM DTT (DS001A). Enzyme solution (5 μL) was added to each of DMSO ([…]) or serially diluted test compounds prepared in DMSO in a Corning (#3574) 384-well, white, non-binding surface microtiter plate (Corning, NY). Kinase reactions were started with the addition of 45 μL of the ATP-peptide substrate S/T3-Sox mix and monitored every 71 seconds for 120 minutes at λex360/λem485 in a Synergy H4 plate reader from BioTek (Winooski, VT) at room temperature.
Background signals from the no enzyme control wells were subtracted from all progress curves. The initial linear portions of the net progress curves were fit according to a linear equation to yield the slope and percentage of inhibition (% inhibition) at each compound concentration. The net progress curves obtained during the first two hours of reactions were also fit according to an ascending single-exponential equation (Eq. 1) to yield kobs values at each compound concentration. Plots of % Inhibition versus inhibitor concentrations were fit according to a dose-response equation (Eq. 2) to generate IC50 and Hill slope values while plots of kobs versus inhibitor concentration were fit according to Equation 3 (Eq. 3) to generate apparent kinact/K1 values using the GraphPad PRISM software (Version 6.00; GraphPad San Diego, CA).
where F is the fluorescence intensity from the plate reader, V0 is a constant reflecting the relationship between the instrument readout and product concentration, t is time, e is Euler's number, and kobs is the observed inactivation rate constant.
where % Inhibition is percentage of inhibition, IC50 is half maximal inhibitory concentration, [I] is the inhibitor concentration, and n is the Hill slope.
where kobs is the observed inactivation rate constant, kinact is the apparent inactivation rate constant, K1 is the apparent inhibition constant, and [I] is the inhibitor concentration. […] Potency results for the compounds tested are shown in Table 4 in the column entitled “MK2 IC50.”

p38a activated, mitogen-activated protein kinase-activated protein kinase 2 (MAPKAP-K2 or MK2) enzyme, sequence (P49137 whole entry): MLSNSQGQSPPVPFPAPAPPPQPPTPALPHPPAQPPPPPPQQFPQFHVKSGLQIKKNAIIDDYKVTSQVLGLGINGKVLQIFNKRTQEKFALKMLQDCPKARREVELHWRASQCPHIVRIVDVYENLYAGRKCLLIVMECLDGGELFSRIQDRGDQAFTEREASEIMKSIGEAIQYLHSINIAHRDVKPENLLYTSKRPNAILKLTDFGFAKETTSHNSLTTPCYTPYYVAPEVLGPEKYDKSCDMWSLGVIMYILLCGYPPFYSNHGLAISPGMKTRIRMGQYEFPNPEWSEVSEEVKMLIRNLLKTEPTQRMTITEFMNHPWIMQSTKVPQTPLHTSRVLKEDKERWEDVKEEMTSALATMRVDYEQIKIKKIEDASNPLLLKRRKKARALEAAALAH

| Compound | IC50 |
| --- | --- |
| C#Cc1cc(-c2ccc3c(ccc4sc5c(c43)NC[C@@H](C)NC5=O)n2)nc(CO)n1 [Example I-78, (R)-3-(6-ethynyl-2-(hydroxymethyl)pyrimidin-4-yl)-10-methyl-9,10,11,12-tetrahydro-8H-[1,4]diazepino[5′,6′:4,5]thieno[3,2-f]quinolin-8-one] | 1 nM |
| C#Cc1cc(-c2ccc3c(ccc4sc5c(c43)NC[C@@H](C)NC5=O)n2)cc(CN2CCN(C)CC2)n1 [Example I-126, (R)-3-(2-ethynyl-6-((4-methylpiperazin-1-yl)methyl)pyridin-4-yl)-10-methyl-9,10,11,12-tetrahydro-8H-[1,4]diazepino[5′,6′:4,5]thieno[3,2-f]quinolin-8-one] | 34 nM |
| C=Cc1cc(-c2ccc3c(ccc4sc5c(c43)NC[C@@H](C)NC5=O)n2)cc(CN2CCN(C)CC2)n1 [Example I-125, (R)-10-methyl-3-(2-((4-methylpiperazin-1-yl)methyl)-6-vinylpyridin-4-yl)-9,10,11,12-tetrahydro-8H-[1,4]diazepino[5′,6′:4,5]thieno[3,2-f]quinolin-8-one] | 2 nM |
| C#Cc1nccc(-c2ccc3c(ccc4sc5c(c43)NC[C@@H](C)NC5=O)n2)c1F [Example I-218, (R)-3-(2-ethynyl-3-fluoropyridin-4-yl)-10-methyl-9,10,11,12-tetrahydro-8H-[1,4]diazepino[5′,6′:4,5]thieno[3,2-f]quinolin-8-one] | 79 nM |

More lines, now with the values ahead:

| IC50 | Compound |
| --- | --- |
| 160 nM | C/C=C/c1ncc(F)c(-c2ccc3c(ccc4sc5c(c43)NC[C@@H](C)NC5=O)n2)n1 [Example I-45, (R,E)-3-(5-fluoro-2-(prop-1-en-1-yl)pyrimidin-4-yl)-10-methyl-9,10,11,12-tetrahydro-8H-[1,4]diazepino[5′,6′:4,5]thieno[3,2-f]quinolin-8-one] |
| 27 nM | C[C@@H]1CNc2c(sc3ccc4nc(-c5cc(Cl)ncc5F)ccc4c23)C(=O)N1 [Example I-69, (R)-3-(2-chloro-5-fluoropyridin-4-yl)-10-methyl-9,10,11,12-tetrahydro-8H-[1,4]diazepino[5′,6′:4,5]thieno[3,2-f]quinolin-8-one] |
| 37 nM | C[C@@H]1CNc2c(sc3ccc4nc(-c5cc(/C=C/CN(C)C)ncn5)ccc4c23)C(=O)N1 [Example I-115, (R,E)-3-(6-(3-(dimethylamino)prop-1-en-1-yl)pyrimidin-4-yl)-10-methyl-9,10,11,12-tetrahydro-8H-[1,4]diazepino[5′,6′:4,5]thieno[3,2-f]quinolin-8-one] |
| 77 nM | C=Cc1nn(C)nc1-c1ccc2c(ccc3sc4c(c32)NC[C@@H](C)NC4=O)n1 [Example I-232, (R)-10-methyl-3-(2-methyl-5-vinyl-2H-1,2,3-triazol-4-yl)-9,10,11,12-tetrahydro-8H-[1,4]diazepino[5′,6′:4,5]thieno[3,2-f]quinolin-8-one] |
| 161 nM | C=Cc1cc(-c2ccc3c(ccc4sc5c(c43)NC[C@@H](C)NC5=O)n2)cc(N2CCC(F)CC2)n1 [Example I-239, (R)-3-(2-(4-fluoropiperidin-1-yl)-6-vinylpyridin-4-yl)-10-methyl-9,10,11,12-tetrahydro-8H-[1,4]diazepino[5′,6′:4,5]thieno[3,2-f]quinolin-8-one] |
| 418 nM | C=Cc1noc(C)c1-c1ccc2c(ccc3sc4c(c32)NC[C@@H](C)NC4=O)n1 [Example I-227, (R)-10-methyl-3-(5-methyl-3-vinylisoxazol-4-yl)-9,10,11,12-tetrahydro-8H-[1,4]diazepino[5′,6′:4,5]thieno[3,2-f]quinolin-8-one] |
| 95 nM | C=Cc1cc(-c2ccc3c(ccc4sc5c(c43)NC[C@@H](C)NC5=O)n2)c(CN2CCC(OC)CC2)cn1 [Example I-155, (R)-3-(5-((4-methoxypiperidin-1-yl)methyl)-2-vinylpyridin-4-yl)-10-methyl-9,10,11,12-tetrahydro-8H-[1,4]diazepino[5′,6′:4,5]thieno[3,2-f]quinolin-8-one] |
